Read-outs that look alike come from different tables or passages of the source.
Tests used:
[1] = target: T1, thromboxane A2 receptors (TPα) of human platelets (Homo sapiens, UniProt P21731); experiment: Binding test: displacement of [3H]SQ-29.548 from human platelet thromboxane A2 receptors; settings: for inhibition at 1 µM: read-out: Affinity: percent of [3H]SQ-29.548 specifically substituted by the examined compound, compound 10^-6 M; for inhibition at 0.1 µM: read-out: Affinity: percent of [3H]SQ-29.548 specifically substituted by the examined compound, compound 10^-7 M
T1 construct: endogenous in cells; host or cells: human platelets
T1 sequence (P21731 1-343): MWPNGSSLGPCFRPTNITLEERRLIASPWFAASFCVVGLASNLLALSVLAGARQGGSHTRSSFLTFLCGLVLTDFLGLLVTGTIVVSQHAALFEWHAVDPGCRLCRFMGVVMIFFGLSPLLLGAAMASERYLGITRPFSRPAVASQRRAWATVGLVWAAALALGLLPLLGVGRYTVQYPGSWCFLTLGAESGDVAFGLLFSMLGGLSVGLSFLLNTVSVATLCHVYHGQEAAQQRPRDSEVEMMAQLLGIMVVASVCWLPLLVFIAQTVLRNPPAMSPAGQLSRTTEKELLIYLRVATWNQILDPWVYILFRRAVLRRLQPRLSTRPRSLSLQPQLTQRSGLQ
Description: To operate a first selection, the capacity of these compounds to displace in a specific way a tritium ligand, the [^3H]
Cozzi P., Giordani A., Menichincheri M., Pillan A., Pinciroli V., Rossi A., Tonani R., Volpi D., Tamburin M., Ferrario R., Fusar D., Salvati P.,—Agents combining thromboxane receptor antagonism with thromboxane synthase inhibition:[[[2-(1H-imidazol-1-yl)ethylidene]amino]oxy]alkanoic acids.—J. Med. Chem., 1994, 37, 3588-3604.

[2] = target: T2, TPτ thromboxan A2 receptors (Rattus norvegicus, UniProt P34978); experiment: Rat aorta contraction test (relaxation of aorta precontracted by U-46619); settings: tonus induced by U-46619 (0.03 μM); read-out: IC 50: concentration reducing by 50% the Rat Aorta muscular tonus
T2 construct: Two tests on smooth musculature have allowed to confirm the antagonist potency on the TPτ thromboxan A2 receptors; from tissue; host or cells: isolated rat aorta; isolated rat stomach fundus
T2 sequence (P34978 1-341): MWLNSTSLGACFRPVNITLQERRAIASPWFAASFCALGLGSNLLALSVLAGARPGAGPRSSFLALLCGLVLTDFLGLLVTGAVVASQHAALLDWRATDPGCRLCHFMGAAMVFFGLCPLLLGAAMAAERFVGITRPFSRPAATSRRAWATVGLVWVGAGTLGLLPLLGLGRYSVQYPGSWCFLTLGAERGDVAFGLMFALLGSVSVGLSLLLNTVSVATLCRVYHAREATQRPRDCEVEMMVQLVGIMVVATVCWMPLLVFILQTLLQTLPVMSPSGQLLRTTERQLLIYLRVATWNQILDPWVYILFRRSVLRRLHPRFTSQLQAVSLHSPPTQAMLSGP
Description: (§1) Two tests on smooth musculature have allowed to confirm the antagonist potency on the TPτ thromboxan A2 receptors. Indeed, the capacity of the selected compounds during the binding to prevent the contraction of the rat fundus induced by I′U-46619 and to relax the rat aorta precontracted by this same stable agonist of the TXA2 have been evaluated;
Test desribed according to:
de Tullio P., Pirotte B., Lebrun P., Fontaine J., Dupont L., Antoine M. H., Ouedraogo R., Khelili S., Maggetto C., Masereel B., Diouf O., Podona T., Delarge J., 3-and -4-substituted 4H-pyrido[4,3-e]-1,2,4-thiadiazine 1,1-dioxides as potassium channels openers: synthesis pharmacological evaluation, and structure-activity relationships.—J. Med. Chem., 1996, 39, 937-948.

[3] = system: Human Platelets aggregation; experiment: Human platelet aggregation test induced by arachidonic acid or U-46619; assay type: cell-based
Description: The TXA2 antagonist potency of the selected compounds has been evaluated by a platelet aggregation test induced by the U-46619 (stable agonist of the thromboxan A2) or by the arachidonic acid.
Test described according to:
Born G.V.R., Cross M. J.,—The aggregation of blood platelets.—J. Physiol., 1963, 168, 178-195.
Tsuyoshi T., Masayuki Y., Shuichi W., Kazuhiro K., Takashi Y.,—Designe, synthesis, and pharmacology of 3-substituted sodium azulene—1 sulfonates and related compounds: Non-prostaboid thromboxane A2 receptor antagonists.—J. Med. Chem., 1993, 36, 791-800.

[4] = target: T2, TPτ thromboxan A2 receptors; experiment: Test for preventing the rat fundus contraction induced by U-46619; settings: contraction caused by 5 μg of U-46619; read-out: IC 50: concentration reducing of 50% of maximum contraction amplitude of rat fundus
Description: as §1
Test description according to:
Harris N., Greenberg R., Phillips M. B., Michel I. M., Goldenberg H. J., Haslanger M. F., Steinbacher T.E.,—Effects of SQ-27,427, a thromboxane A2 receptor antagonist, in the human platelet and isolated smooth muscle.—Eur. J. Pharmacol., 1984, 103, 9-18.

[5] = Platelet, aggregation induced by 30 nM of U-46619, read-out: IC 50 platelet aggregation, U-46.619
[6] = Platelet, aggregation induced by arachidonic acid, read-out: IC 50 platelet aggregation, ARACHIDONIC ACID

Structure (SMILES) | IC50 [1] | inhibition at 1 µM [1] | inhibition at 0.1 µM [1] | IC50 [2] | IC50 [3, 5] | IC50 [3, 6] | IC50 [4] | Affinity: percent of [3H]SQ-29.548 specifically substituted by the examined compound, 10^-6M ([1]; compound 10^-6 M) | Affinity: percent of [3H]SQ-29.548 specifically substituted by the examined compound, 10^-7M ([1]; compound 10^-7 M) | IC50 ([3]; aggregation induced by 30 nM of U-46619, read-out: IC 50 platelet aggregation, U-46.619) | IC50 ([3]; aggregation induced by arachidonic acid, read-out: IC 50 platelet aggregation, ARACHIDONIC ACID)
O=C(NC1CCCCC1)NS(=O)(=O)c1cc([N+](=O)[O-])ccc1NC1CCCCC1 [Compound 17] | 22.7 nM | 100% | 88% | 1.38 nM | – | – | – | – | – | – | –
O=C(NC1CCCCC1)NS(=O)(=O)c1cc([N+](=O)[O-])ccc1NC1CCCCCC1 [Compound 22] | 41.7 nM | 100% | 84.1% | 37.6 nM | – | – | – | – | – | – | –
O=C(O)CCC/C=C\CC1C2CCC(O2)C1CNNC(=O)Nc1ccccc1 (stereo not drawn) [SQ-29.548, acid [15-[1-alpha,2-beta (5Z),3-beta, 4-alpha]-7-[3-[[2-(phenylamino)carbonyl]hydrazin]methyl]-7-oxabicyclo[2.2.1]hept-2-yl]-5-heptenoic, reference compound] | – | – | – | 31.8 nM | – | – | 180 nM | 100% | 72.0% | 34 nM | 35 nM
O=C(O)COc1ccc(CCNS(=O)(=O)c2ccccc2)cc1 [SULOTROBAN, sulotroban, reference compound] | – | 55.6% | 16.5% | 1600 nM | 10500 nM | 11700 nM | 830 nM | – | – | – | –

More lines, in order of falling IC50 [2], values ahead:

IC50 [1] | inhibition at 1 µM [1] | inhibition at 0.1 µM [1] | IC50 [2] | IC50 [3, 5] | IC50 [3, 6] | IC50 [4] | Affinity: percent of [3H]SQ-29.548 specifically substituted by the examined compound, 10^-6M ([1]; compound 10^-6 M) | Affinity: percent of [3H]SQ-29.548 specifically substituted by the examined compound, 10^-7M ([1]; compound 10^-7 M) | IC50 ([3]; aggregation induced by 30 nM of U-46619, read-out: IC 50 platelet aggregation, U-46.619) | IC50 ([3]; aggregation induced by arachidonic acid, read-out: IC 50 platelet aggregation, ARACHIDONIC ACID) | Structure (SMILES)
7.8 nM | 97.4% | 95.4% | 20.6 nM | – | – | – | – | – | – | – | CC(C)(C)NC(=O)NS(=O)(=O)c1cc([N+](=O)[O-])ccc1NC1CCCCC1 [Compound 29, N-[(2-cyclohexylamin-5-nitrobenzene)sulfonyl]N′-tert-butyl urea]
10.5 nM | 100% | 95.2% | 19.7 nM | – | – | – | – | – | – | – | CC(C)(C)NC(=O)NS(=O)(=O)c1cc([N+](=O)[O-])ccc1NC1CCCCCC1 [Compound 25]
26.9 nM | 94.4% | 63% | 17.7 nM | – | – | – | – | – | – | – | O=[N+]([O-])c1ccc(NC2CCCCCC2)c(S(=O)(=O)NC(=S)NC2CCCCC2)c1 [Compound 40, N-[(2-cycloheptylamin-5-nitrobenzene)sulfonyl]N′-cyclohexyl thiourea]
24.2 nM | 100% | 88.9% | 1.21 nM | 480 nM | 360 nM | 70 nM | – | – | – | – | Cc1cccc(Nc2ccc([N+](=O)[O-])cc2S(=O)(=O)NC(=NC#N)N2CCCCCC2)c1 [Compound 18, N-cyano-N′-[(2-metatoluylamin-5-nitrobenzene)sulfonyl]homopiperidinoamidine]
